Key:
[1] = test system: HUH7 hepatocarcinoma cells; test: XTT mitochondrial activity/cell viability assay, HUH7; assay type: cell-based; details: 20 µM, 24 h, serum-free media, vs DMSO control (0.2%)
Protocol: Results were normalized to the DMSO control. […]
to, so that all test concentrations contained always the same amount of DMSO.
(§1) Additionally, 2 wells with negative controls containing only DMSO and the culture medium were included. After an incubation period of 72 h at 37 °C and 5 % CO 2, the worms were microscopically evaluated. The drug effect was determined 24, 48 and 72 h post-exposure based on the phenotype of the adult worms, using a viability scale ranging from three referring to viable, motile worms with no change in their tegument to zero standing for the death of the worms.
All described in vitro studies with mice involved, were conducted at the Swiss Tropical and Public Health Institute, first in Basel, later in Allschwil, and had the approval by the corresponding veterinary authorities of the Canton Basel-Stadt (permit no. 2070) […]
Following 24 h of incubation, 12.5 μL of an XTT/phenazine methosulfate (PMS) (XTT Sigma Aldrich cat X4626, PMS Serva CAT: 3203) 0.02solution (1 mg/mL XTT and 7.5 μg/mL PMS) was added to each well. Absorbance was measured using a microplate reader (Biotek Synergy HT) at 450 nm (signal) and 650 nm (background), 2 h after the addition of the XTT/PMS solution. […] Mean ± SD was determined from three independent experiments, each performed in quintuplicate. […]
The cytotoxic potential was additionally evaluated using the staining-based SYTOX viability assay. […]

[2] = test system: SH-SY5Y neuroblastoma cells; test: XTT mitochondrial activity/cell viability assay, SH-SY5Y; assay type: cell-based; details: 20 µM, 24 h, serum-free media, vs DMSO control (0.2%), mean
Protocol: The safety profile of niridazole and its organometallic derivatives was evaluated using two different cell lines. The XTT mitochondrial activity assay reflecting cell viability was performed in the hepatocyte‐derived carcinoma cell line HUH7 and in the human neuroblastoma cell line SH‐SY5Y at 20 µM for 24 h. The SYTOX cell viability assay was subsequently performed on the SH‐SY5Y cell line, once the cell line was identified to be more sensitive to the treatment conditions.
Figure 5 XTT assay. Results of the XTT activity/viability assay are shown in A for HUH7 and B for SHSY5Y cells. […]
as §1, with “worms. […]” for “worms.”
Following 24 h of incubation, 12.5 μL of an XTT/phenazine methosulfate (PMS) (XTT Sigma Aldrich cat X4626, PMS Serva CAT: 3203) 0.02solution (1 mg/mL XTT and 7.5 μg/mL PMS) was added to each well. […] Mean ± SD was determined from three independent experiments, each performed in quintuplicate. […]

Structure (SMILES): O=C1NCCN1c1ncc([N+](=O)[O-])s1 [Niridazole, niridazole]
- XTT activity in HUH7 cells compared to DMSO control [1]: no signs of toxicity
- reduction of XTT signal in SH-SY5Y cells [2]: no signs of toxicity

Reference: PMC12677843, “Multidisciplinary Preclinical Investigations on Ferrocenyl, Ruthenocenyl, and Benzyl Derivatives of Niridazole as New Drug Candidates against Schistosomiasis” (Chemmedchem, 2025)
